For assay [1], the target named is Cyclin-dependent kinase 2/cyclin A (Homo sapiens, UniProt P24941). Description: Inhibition of recombinant CDK2/Cyclin A expressed in insect Sf9 cells assessed as inhibition of [33P]-ATP incorporation into biotinylated histone H1 after 1 hr by liquid scintillation counting.
Assay [2] deals with T1, Serine/threonine-protein kinase Chk1 (Homo sapiens, UniProt O14757).
T1 sequence (O14757 whole entry): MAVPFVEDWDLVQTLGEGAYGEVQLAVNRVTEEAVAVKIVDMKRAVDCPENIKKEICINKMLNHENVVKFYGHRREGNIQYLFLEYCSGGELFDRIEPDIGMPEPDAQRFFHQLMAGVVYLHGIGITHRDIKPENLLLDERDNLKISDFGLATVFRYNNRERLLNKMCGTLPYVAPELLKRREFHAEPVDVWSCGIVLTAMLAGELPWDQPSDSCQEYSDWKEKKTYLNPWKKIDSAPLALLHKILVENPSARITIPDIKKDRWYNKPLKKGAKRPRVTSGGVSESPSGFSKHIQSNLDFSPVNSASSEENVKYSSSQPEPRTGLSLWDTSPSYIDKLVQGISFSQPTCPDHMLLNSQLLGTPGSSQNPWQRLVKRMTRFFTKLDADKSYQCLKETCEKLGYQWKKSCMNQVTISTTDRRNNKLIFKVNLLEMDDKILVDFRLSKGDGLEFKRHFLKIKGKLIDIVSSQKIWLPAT
Description: Inhibition of histidine-tagged recombinant CHK1 expressed in baculovirus expression system after 2 hrs by scintillation proximity assay

Experimental findings from ChEMBL document CHEMBL1641419, “Discovery of pyrazolo[1,5-a]pyrimidine-based CHK1 inhibitors: a template-based approach--part 2” (Bioorg Med Chem Lett, 2011) are described below.

Usually IC50 stands for the concentration that inhibits the measured activity by half. Turning to `Cn1cc(-c2cnn3c(N)c(Cl)c(C4CCCNC4)nc23)cn1` (stereo not drawn), the IC50 in assay [1] was 310 nM; in assay [2] it was 3 nM.
For the compound `Cn1cc(-c2cnn3c(N)c(Br)c(C4CCCNC4)nc23)cn1` (stereo not drawn), in assay [1], the IC50 is 160 nM.
The same measure, in the same setting: the result for `Cn1cc(-c2cnn3c(N)c(I)c(C4CCCNC4)nc23)cn1` (stereo not drawn) reads 330 nM.
Same read-out and setting: to `CCc1c(C2CCCNC2)nc2c(-c3cnn(C)c3)cnn2c1N` (stereo not drawn) belongs 330 nM; to `CC#Cc1c(C2CCCNC2)nc2c(-c3cnn(C)c3)cnn2c1N` (stereo not drawn), 520 nM.
On the same count and under the same terms, the result for `Cn1cc(-c2cnn3c(N)c(C4CC4)c(C4CCCNC4)nc23)cn1` (stereo not drawn) reads 170 nM.
Turning to `Cn1cc(-c2cnn3c(N)c(CCO)c(C4CCCNC4)nc23)cn1` (stereo not drawn), the figures for the IC50 in assay [1] and in assay [2] were 48 nM and 26 nM, respectively.
On to `COC/C=C/c1c(C2CCCNC2)nc2c(-c3cnn(C)c3)cnn2c1N` (stereo not drawn), for which, in assay [1], the IC50 came to 2200 nM.
In the case of `Cn1cc(-c2cnn3c(N)c(C#N)c(C4CCCNC4)nc23)cn1` (stereo not drawn), the values for the IC50 in assay [1] and in assay [2] were 1700 nM and 100 nM, respectively.
For the compound `Cn1cc(-c2cnn3c(N)c(-c4ccccc4)c(C4CCCNC4)nc23)cn1` (stereo not drawn), the IC50 in assay [1] was 8300 nM.
Same read-out and setting: the result for `Cn1cc(-c2cnn3c(N)c(-c4cccs4)c(C4CCCNC4)nc23)cn1` (stereo not drawn) reads 990 nM; that for `Cn1cc(-c2cnn3c(N)c(-c4ccsc4)c(C4CCCNC4)nc23)cn1` (stereo not drawn), 2200 nM.
On to `Cn1cc(-c2cnn3c(N)c(-c4ccoc4)c(C4CCCNC4)nc23)cn1` (stereo not drawn), for which the 50% inhibitory concentration (IC50) in assay [1] was found to be 2300 nM.
Same read-out and setting: to `Cn1cc(-c2cnn3c(N)c(-c4cccnc4)c(C4CCCNC4)nc23)cn1` (stereo not drawn) belongs 1500 nM; to `Cn1cc(-c2cnn3c(N)c(-c4ccncc4)c(C4CCCNC4)nc23)cn1` (stereo not drawn), 11000 nM.
For `Cn1cc(-c2c(C3CCCNC3)nc3c(-c4cnn(C)c4)cnn3c2N)cn1` (stereo not drawn), the results for the IC50 in assay [1] and in assay [2] were 22000 nM and 100 nM, respectively.
The matching figures for `Nc1c(Br)c(C2CCCNC2)nc2c(-c3cccnc3)cnn12` (stereo not drawn): 170 nM and 17 nM.
With `Nc1c(Br)c(C2CCCNC2)nc2c(-c3ccoc3)cnn12` (stereo not drawn), in assay [1], the IC50 turned out to be 100 nM.
Take `Cc1ncc(-c2cnn3c(N)c(Br)c(C4CCCNC4)nc23)s1` (stereo not drawn): the results for the IC50 in assay [1] and in assay [2] were 200 nM and 8 nM, respectively.
With `Cn1cc(-c2cnn3c(N)c(Br)c(-c4cccnc4)nc23)cn1`, the IC50 in assay [1] was 1300 nM; in assay [2] it was 4000 nM.
For the compound `Cn1cc(-c2cnn3c(N)c(Br)c(C4CCCCN4)nc23)cn1` (stereo not drawn), the figures for the IC50 in assay [1] and in assay [2] were 28700 nM and 2900 nM, respectively.
The matching figures for `Cn1cc(-c2cnn3c(N)c(Br)c(C4CCNCC4)nc23)cn1`: 490 nM and 35 nM.
The matching figures for `Cn1cc(-c2cnn3c(N)c(Br)c(C4CNCCO4)nc23)cn1` (stereo not drawn): 1200 nM and 130 nM.
`Cn1cc(-c2cnn3c(N)c(Br)c(C4CNCCS4)nc23)cn1` (stereo not drawn): the half-inhibitory concentration (IC50) in assay [1] was 150 nM.
Turning to `Cn1cc(-c2cnn3c(N)c(Br)c(C4CCNC4)nc23)cn1` (stereo not drawn), the IC50 worked out at 510 nM in assay [1] and 31 nM in assay [2].
`Cn1cc(-c2cnn3c(N)c(Br)c(CCN)nc23)cn1` registered an IC50 in assay [2] of 34 nM.
For `Cn1cc(-c2cnn3c(N)c(Br)c(CC4CCNCC4)nc23)cn1`, the IC50 in assay [1] was determined as 2800 nM; in assay [2], 87 nM.
For the compound `Cn1cc(-c2cnn3c(N)c(Br)c(CC4CCNC4)nc23)cn1` (stereo not drawn), the IC50 in assay [2] worked out at 7 nM.
Compound `Cn1cc(-c2cnn3c(N)c(Br)c(CC4CCCNC4)nc23)cn1` (stereo not drawn) displayed an IC50 in assay [2] of 7 nM.
For the compound `Cn1cc(-c2cnn3c(N)c(Br)c(C[C@H]4CCC[C@@H](N)C4)nc23)cn1` (relative stereo), the IC50 was 440 nM in assay [1] and 5 nM in assay [2].
